Converted amounts (≈) assume the structure as drawn. Where two headings read alike, the source gives them in different places.
Legend:
[1] = test system: Coagulase-negative staphylococci; experiment: Broth microdilution MIC, European bacteraemia isolates 2010-2012; format: cell-based, coagulase-negative staphylococci (CoNS); conditions: for inhibition at 0.015 µg/mL: at 0.015 mg/L; for inhibition at 0.03 µg/mL: at 0.03 mg/L; for inhibition at 0.06 µg/mL: at 0.06 mg/L; for inhibition at 0.12 µg/mL: at 0.12 mg/L
How it was run: (§1)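 Bacteraemia isolates from European, Israeli, Russian, Turkish and Ukrainian hospitals (2010-2012) tested centrally by CLSI M07-A9 broth microdilution in cation-adjusted Mueller-Hinton broth with 0.002% polysorbate-80. QC strains E. faecalis ATCC 29212 and S. aureus ATCC 29213; interpretation per CLSI M100-S23 and EUCAST 2013.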

[2] = test system: S. aureus; experiment: as above; format: cell-based
How it was run: as §1

[3] = read-out: cumulative % inhibited at MIC, CoNS, Methicillin-resistant (509)
[4] = read-out: cumulative % inhibited at MIC, CoNS, Methicillin-susceptible (137)
[5] = S. aureus, Methicillin-Susceptible (1,126), at ≦0.008 mg/L
[6] = S. aureus, Methicillin-resistant (372), at ≦0.008 mg/L
[7] = S. aureus, Vancomycin MIC = 2 mg/L (19), at 0.015 mg/L
[8] = S. aureus, Vancomycin MIC = 2 mg/L (19), at 0.03 mg/L
[9] = S. aureus, Vancomycin MIC = 2 mg/L (19), at 0.06 mg/L
[10] = S. aureus, Vancomycin MIC = 2 mg/L (19), at 0.12 mg/L
[11] = Staphylococcus aureus, Table 1, S. aureus, Methicillin-Susceptible (1,126)
[12] = Staphylococcus aureus, Table 1, S. aureus, Methicillin-resistant (372)
[13] = Staphylococcus aureus, read-out: cumulative % inhibited at MIC
[14] = Staphylococcus aureus, Table 2, S. aureus Methicillin-resistant (1,708)

CN[C@H](CC(C)C)C(=O)N[C@H]1C(=O)N[C@@H](CC(N)=O)C(=O)N[C@H]2C(=O)N[C@H]3C(=O)N[C@H](C(=O)N[C@H](C(=O)O)c4cc(O)cc(O)c4-c4cc3ccc4O)[C@H](O[C@H]3C[C@](C)(N)[C@@H](O)[C@H](C)O3)c3ccc(c(Cl)c3)Oc3cc2cc(c3O[C@@H]2O[C@H](CO)[C@@H](O)[C@H](O)[C@H]2O[C@H]2C[C@](C)(NCc3ccc(-c4ccc(Cl)cc4)cc3)[C@@H](O)[C@H](C)O2)Oc2ccc(cc2Cl)[C@H]1O [Oritavancin, N-(4-(4-chlorophenyl)benzyl)A82846B]
inhibition at 0.015 µg/mL [1, 3]: 34.8% | inhibition at 0.03 µg/mL [1, 3]: 70.3% | inhibition at 0.06 µg/mL [1, 3]: 92.7% | inhibition at 0.12 µg/mL [1, 3]: 99.2% | inhibition at 0.25 µg/mL ([1]; read-out: cumulative % inhibited at MIC, CoNS, Methicillin-resistant (509), at 0.25 mg/L): 100% | inhibition at 0.015 µg/mL [1, 4]: 47.5% | inhibition at 0.03 µg/mL [1, 4]: 83.9% | inhibition at 0.06 µg/mL [1, 4]: 99.3% | inhibition at 0.12 µg/mL [1, 4]: 100% | activity relative to vancomycin or linezolid ([2]; MRSA strains, MIC50/90): 16- to 32 fold | potency relative to daptomycin ([2]; MRSA strains, MIC50/90): eight-fold | MIC50, MIC90 and modal MIC relative to strains with vancomycin MIC≦1 mg/L ([2]; S. aureus isolates with decreased susceptibility to vancomycin (MIC=2 mg/L)): two-fold higher | Number inhibited at MIC ([2]; S. aureus, Methicillin-Susceptible (1,126), at 0.015 mg/L): 247 | Number inhibited at MIC ([2]; S. aureus, Methicillin-Susceptible (1,126), at 0.03 mg/L): 458 | Number inhibited at MIC ([2]; S. aureus, Methicillin-Susceptible (1,126), at 0.06 mg/L): 297 | Number inhibited at MIC ([2]; S. aureus, Methicillin-Susceptible (1,126), at 0.12 mg/L): 78 | Number inhibited at MIC ([2]; S. aureus, Methicillin-Susceptible (1,126), at 0.25 mg/L): 18 | Number inhibited at MIC [2, 5]: 28 | cumulative % inhibited at MIC [2, 5]: 2.5% | Number inhibited at MIC ([2]; S. aureus, Methicillin-resistant (372), at 0.015 mg/L): 86 | Number inhibited at MIC ([2]; S. aureus, Methicillin-resistant (372), at 0.03 mg/L): 180 | Number inhibited at MIC ([2]; S. aureus, Methicillin-resistant (372), at 0.06 mg/L): 68 | Number inhibited at MIC ([2]; S. aureus, Methicillin-resistant (372), at 0.12 mg/L): 27 | Number inhibited at MIC ([2]; S. aureus, Methicillin-resistant (372), at 0.25 mg/L): 6 | Number inhibited at MIC [2, 6]: 5 | cumulative % inhibited at MIC [2, 6]: 1.3% | Number inhibited at MIC [2, 7]: 1 | cumulative % inhibited at MIC [2, 7]: 5.3% | Number inhibited at MIC [2, 8]: 3 | cumulative % inhibited at MIC [2, 8]: 21.1% | Number inhibited at MIC [2, 9]: 11 | cumulative % inhibited at MIC [2, 9]: 78.9% | Number inhibited at MIC [2, 10]: 3 | cumulative % inhibited at MIC [2, 10]: 94.7% | Number inhibited at MIC ([2]; S. aureus, Vancomycin MIC = 2 mg/L (19), at 0.25 mg/L): 1 | Number inhibited at MIC ([2]; S. aureus, Vancomycin MIC = 2 mg/L (19), at ≦0.008 mg/L): 0 | Number inhibited at MIC ([2]; S. aureus, Vancomycin MIC ≦1 mg/L (1,479), at 0.12 mg/L): 102 | Number inhibited at MIC ([2]; S. aureus, Vancomycin MIC ≦1 mg/L (1,479), at 0.25 mg/L): 23 | MIC50 ([2]; Staphylococcus aureus): 0.03 µg/mL (≈ 0.0167 µM) | MIC90 ([2]; Staphylococcus aureus): 0.06 µg/mL (≈ 0.0335 µM) | inhibition at 2 µg/mL ([2]; Staphylococcus aureus, S. aureus, Vancomycin MIC = 2 mg/L (19), at ≦0.008 mg/L, read-out: cumulative % inhibited at MIC): 0% | inhibition at 0.12 µg/mL ([2]; Staphylococcus aureus, S. aureus, Vancomycin MIC ≦1 mg/L (1,479), at 0.12 mg/L, read-out: cumulative % inhibited at MIC): 98.4% | inhibition at 0.25 µg/mL ([2]; Staphylococcus aureus, S. aureus, Vancomycin MIC ≦1 mg/L (1,479), at 0.25 mg/L, read-out: cumulative % inhibited at MIC): 100% | MIC50 [2, 11]: 0.03 µg/mL (≈ 0.0167 µM) | MIC90 [2, 11]: 0.06 µg/mL (≈ 0.0335 µM) | MIC50 [2, 12]: 0.03 µg/mL (≈ 0.0167 µM) | MIC90 [2, 12]: 0.06 µg/mL (≈ 0.0335 µM) | MIC50 ([2]; Staphylococcus aureus, Table 1, S. aureus, Vancomycin MIC = 2 mg/L (19), read-out: MIC 50%): 0.06 µg/mL (≈ 0.0335 µM) | MIC90 ([2]; Staphylococcus aureus, Table 1, S. aureus, Vancomycin MIC = 2 mg/L (19), read-out: MIC 90%): 0.12 µg/mL (≈ 0.0669 µM) | inhibition at 0.015 µg/mL [2, 13]: 24.7% | inhibition at 0.03 µg/mL [2, 13]: 67.6% | inhibition at 0.06 µg/mL [2, 13]: 91.5% | inhibition at 0.015 µg/mL ([2]; Staphylococcus aureus, read-out: cumulative % inhibited at MIC, S. aureus, Methicillin-Susceptible (1,126), at 0.015 mg/L): 24.4% | inhibition at 0.03 µg/mL ([2]; Staphylococcus aureus, read-out: cumulative % inhibited at MIC, S. aureus, Methicillin-Susceptible (1,126), at 0.03 mg/L): 65.1% | inhibition at 0.06 µg/mL ([2]; Staphylococcus aureus, read-out: cumulative % inhibited at MIC, S. aureus, Methicillin-Susceptible (1,126), at 0.06 mg/L): 91.5% | inhibition at 0.12 µg/mL ([2]; Staphylococcus aureus, read-out: cumulative % inhibited at MIC, S. aureus, Methicillin-Susceptible (1,126), at 0.12 mg/L): 98.4% | inhibition at 0.25 µg/mL ([2]; Staphylococcus aureus, read-out: cumulative % inhibited at MIC, S. aureus, Methicillin-Susceptible (1,126), at 0.25 mg/L): 100% | inhibition at 0.015 µg/mL ([2]; Staphylococcus aureus, read-out: cumulative % inhibited at MIC, S. aureus, Methicillin-resistant (372), at 0.015 mg/L): 24.5% | inhibition at 0.03 µg/mL ([2]; Staphylococcus aureus, read-out: cumulative % inhibited at MIC, S. aureus, Methicillin-resistant (372), at 0.03 mg/L): 72.9% | inhibition at 0.06 µg/mL ([2]; Staphylococcus aureus, read-out: cumulative % inhibited at MIC, S. aureus, Methicillin-resistant (372), at 0.06 mg/L): 91.1% | inhibition at 0.12 µg/mL ([2]; Staphylococcus aureus, read-out: cumulative % inhibited at MIC, S. aureus, Methicillin-resistant (372), at 0.12 mg/L): 98.4% | inhibition at 0.25 µg/mL ([2]; Staphylococcus aureus, read-out: cumulative % inhibited at MIC, S. aureus, Methicillin-resistant (372), at 0.25 mg/L): 100% | MIC50 [2, 14]: 0.03 µg/mL (≈ 0.0167 µM) | MIC90 [2, 14]: 0.06 µg/mL (≈ 0.0335 µM) | MIC Range ([2]; Table 2, S. aureus Methicillin-resistant (1,708)): ≦0.008-0.25 mg/L

Reference: patent US20160206688A1, “METHODS FOR TREATING BACTEREMIA AND OSTEOMYELITIS USING ORITAVANCIN” (THE MEDICINES COMPANY, priority 2013, published 2016)
